Results: US4614807A, “6,7-dihalomelatonins” (Eli Lilly and Company, priority 1984, dated 1986)
Read-outs that look alike come from different tables or passages of the source.

Columns and labels:
ovulation [1] = assay: inhibition of ovulation, test compound given orally on the day of proestrus; absence of ova in oviduct; format: in vivo; details: oral, rat
Experimental: The compounds of the invention are ovulation inhibitors, with a longer duration of action than the monochloromelatonins. The degree of ovulation inhibitory activity was determined according to the following protocol.
Adult female rats with regular estrus cycles of four days each are employed. The estrus cycle consists of 2 days of diestrus followed by a day of proestrus and then a day of estrus. […] On the afternoon of proestrus, luteinizing hormone (LH) is released into the blood by the pituitary gland. The LH travels to the ovary where it induces ovulation, resulting in the presence of eggs in the oviduct on the day of estrus.
The test compound is administered orally at predetermined times on the day of proestrus. The rat is sacrificed on the following day (estrus). The oviduct is removed and examined microscopically for the presence of ova.
In the Table, column 1 gives the name of the compound, column 2 the time of administration and column 3 the percent inhibition of ovulation.

ovulation [2] = details: in vivo; cited from earlier work
[3] = test system: estrous phase of the estrous cycle and ovulation; details: rats; cited from earlier work
[4] = test system: estrous phase of the estrous cycle and ovulation; details: mice; cited from earlier work
[5] = time of administration 10:00 a.m.

Structure (SMILES): COc1cc2c(CCNC(C)=O)c(C)[nH]c2c(Cl)c1Cl [2-methyl-6,7-dichloromelatonin]
- Percent Inhibition of ovulation (ovulation [1]; time of administration 8:00 a.m.): 100%

Structure (SMILES): COc1cc2c(CCNC(C)=O)c[nH]c2c(Cl)c1Cl [6,7-dichloromelatonin, N-acetyl-5-methoxy-6,7-dichlorotryptamine]
- Percent Inhibition of ovulation (ovulation [1]; [5]): 100%

Structure (SMILES): COc1cc2c(CCNC(C)=O)c[nH]c2cc1Cl [6-chloromelatonin]
- Percent Inhibition of ovulation (ovulation [1]; [5]): 0%
- ovulation blocking activity (ovulation [2]): increased ovulation blocking activity

Structure (SMILES): COc1cc2c(CCNC(C)=O)c[nH]c2cc1F [6-fluoromelatonin]
- ovulation blocking activity (ovulation [2]): increased ovulation blocking activity

Structure (SMILES): COc1ccc2[nH]cc(CCNC(C)=O)c2c1 [melatonin, N-[2-(5-methoxy-3-indolyl)ethyl]acetamide]
- inhibition of estrous phase of the estrous cycle [3]: inhibited
- inhibition of ovulation [3]: inhibited
- inhibition of estrous phase of the estrous cycle [4]: inhibited
- inhibition of ovulation [4]: inhibited

Structure (SMILES): COc1cc2c(CC(C)NC(C)=O)c[nH]c2cc1Cl (stereo not drawn) [α-methyl-6-chloromelatonin]
- effect of α-methyl substitution on ovulation-blocking activity (ovulation [2]): no significant effect
